From the CheMixHub viscosity set
Where “and” joins values, the source holds several entries; their conditions need not be identical. Equal entries are not always repeated.

Test: xn = mol fraction of the nth substance listed

CC(Cl)(Cl)Cl + CCOC(C)=O
Settings	viscosity [mPa·s]
298.15 K, 101.33 kPa, x1 = 0.098	0.4485
298.15 K, 101.33 kPa, x1 = 0.197	0.4712
298.15 K, 101.33 kPa, x1 = 0.297	0.4964
298.15 K, 101.33 kPa, x1 = 0.398	0.5244
298.15 K, 101.33 kPa, x1 = 0.498	0.5554
298.15 K, 101.33 kPa, x1 = 0.598	0.5901
298.15 K, 101.33 kPa, x1 = 0.699	0.6295
298.15 K, 101.33 kPa, x1 = 0.771	0.665
298.15 K, 101.33 kPa, x1 = 0.885	0.7192
303.15 K, 101.3 kPa, x2 = 0.1006	0.6668
303.15 K, 101.3 kPa, x2 = 0.1989	0.6158
303.15 K, 101.3 kPa, x2 = 0.2986	0.5731
303.15 K, 101.3 kPa, x2 = 0.4038	0.5366
303.15 K, 101.3 kPa, x2 = 0.4965	0.5101
303.15 K, 101.3 kPa, x2 = 0.5999	0.4831
303.15 K, 101.3 kPa, x2 = 0.7003	0.4579
303.15 K, 101.3 kPa, x2 = 0.7974	0.4366
303.15 K, 101.3 kPa, x2 = 0.9008	0.4167

CCCCCCCCn1cc[n+](C)c1.[Cl][Fe-]([Cl])([Cl])[Cl] + CCOC(C)=O
viscosity [mPa·s], 101 kPa
Settings	x1 = 0.0999	x1 = 0.197	x1 = 0.2987	x1 = 0.3989	x1 = 0.4986	x1 = 0.6004	x1 = 0.6958	x1 = 0.7939	x1 = 0.8777
293.15 K	1.47	3.56	7.5	13.82	23.21	37.15	58.2	85.97	111.8
298.15 K	1.38	3.24	6.65	11.97	19.68	30.95	47.6	69.55	91.12
303.15 K	1.29	2.97	5.94	10.48	16.88	26.07	39.75	56.28	73.83
308.15 K	1.21	2.72	5.33	9.22	14.61	22.2	33.32	46.86	59.83
313.15 K	1.14	2.52	4.81	8.17	12.77	19.08	28.28	39.4	49.32
318.15 K	1.07	2.33	4.37	7.31	11.24	16.49	24.27	33.42	41.48
323.15 K	1.02	2.16	3.99	6.6	9.97	14.4	20.98	28.43	35.08

O=CO + CN(C)C=O
303.15 K, 101 kPa
Settings	viscosity [mPa·s]
x1 = 0.1513	0.848
x1 = 0.2841	0.986
x1 = 0.4038	1.16
x1 = 0.6144	1.45
x1 = 0.7869	1.58
x1 = 0.8657	1.58

CNC[C@H](O)c1cccc(O)c1.Cl + CO
viscosity [mPa·s], 100 kPa
Settings	293.15 K	298.15 K	303.15 K	308.15 K	313.15 K	318.15 K	323.15 K
x1 = 0.00048	0.6061	0.5699	0.5374	0.4992	0.4719	0.4428	0.4161
x1 = 0.00096	0.6213	0.5836	0.5482	0.5108	0.4839	0.4485	0.4228
x1 = 0.00144	0.6373	0.593	0.5581	0.5213	0.4935	0.4539	0.4302
x1 = 0.00192	0.6534	0.6059	0.5687	0.5404	0.5059	0.466	0.433
x1 = 0.0024	0.6642	0.6216	0.5828	0.5593	0.5182	0.4782	0.4357

O=CO + CO
303.15 K, 101 kPa
Settings	viscosity [mPa·s]
x1 = 0.0714	0.573
x1 = 0.1463	0.609
x1 = 0.2264	0.641
x1 = 0.3137	0.658
x1 = 0.4031	0.677
x1 = 0.506	0.691
x1 = 0.6149	0.75
x1 = 0.7328	0.867
x1 = 0.8604	1.062

CC(Cl)(Cl)Cl + COC(C)=O
Settings	viscosity
298.15 K, 101.33 kPa, x1 = 0.1	0.3907 mPa·s
298.15 K, 101.33 kPa, x1 = 0.101	0.3907 mPa·s
298.15 K, 101.33 kPa, x1 = 0.198	0.4156 mPa·s
298.15 K, 101.33 kPa, x1 = 0.199	0.4157 mPa·s
298.15 K, 101.33 kPa, x1 = 0.297	0.4438 mPa·s
298.15 K, 101.33 kPa, x1 = 0.3	0.445 mPa·s
298.15 K, 101.33 kPa, x1 = 0.398	0.4763 mPa·s
298.15 K, 101.33 kPa, x1 = 0.401	0.4774 mPa·s
298.15 K, 101.33 kPa, x1 = 0.499	0.513 mPa·s
298.15 K, 101.33 kPa, x1 = 0.5	0.5132 mPa·s and 0.5114 mPa·s
298.15 K, 101.33 kPa, x1 = 0.599	0.5525 mPa·s and 0.5545 mPa·s
298.15 K, 101.33 kPa, x1 = 0.699	0.6024 mPa·s
298.15 K, 101.33 kPa, x1 = 0.799	0.6574 mPa·s
298.15 K, 101.33 kPa, x1 = 0.901	0.7178 mPa·s
303.15 K, 101.3 kPa, x2 = 0.0993	0.6661 mPa·s
303.15 K, 101.3 kPa, x2 = 0.2042	0.6072 mPa·s
303.15 K, 101.3 kPa, x2 = 0.3008	0.5599 mPa·s
303.15 K, 101.3 kPa, x2 = 0.4008	0.5182 mPa·s
303.15 K, 101.3 kPa, x2 = 0.5039	0.4792 mPa·s
303.15 K, 101.3 kPa, x2 = 0.6038	0.4462 mPa·s
303.15 K, 101.3 kPa, x2 = 0.6968	0.4186 mPa·s
303.15 K, 101.3 kPa, x2 = 0.7992	0.3921 mPa·s
303.15 K, 101.3 kPa, x2 = 0.902	0.3668 mPa·s

CC(Cl)(Cl)Cl + COCC(C)O
298.15 K, 101.33 kPa
Settings	viscosity [mPa·s]
x1 = 0.101	1.508
x1 = 0.2	1.362
x1 = 0.3	1.232
x1 = 0.4	1.119
x1 = 0.501	1.021
x1 = 0.601	0.9385
x1 = 0.7	0.8715
x1 = 0.72	0.8596
x1 = 0.837	0.8044
x1 = 0.908	0.785
